Each block holds one compound with its values, some of them ahead of it.
What was measured:
[1] = system: Atrial natriuretic factor (ANF) expression, P19 cells; assay: ANF test (ANF promoter luciferase reporter) in P19 cells; assay type: cell-based, murine; set-up: key to Evaluation (luminescence in relation to the blank): −: decrease of luminescence compared to the blank value; +: measurable increase; ++: at least 1.5-fold increase; +++: at least 2-fold increase; conditions: for fold induction at 1 µM: Mus musculus, 192 h, read-out: Evaluation (luminescence in relation to the blank); for fold induction at 1 µM / Evaluation (luminescence in relation to the blank): P19 cells (**), compound 1 μM in DMSO, 8 days culture, relative to DMSO blank
Source text: Atrial natriuretic factor (ANF) or atrial natriuretic peptide (ANP) is a cyclic peptide hormone made up of 28 amino acids, which is predominantly emitted by the muscle cells (myocytes) of the atrium of the heart. It is stored in the atrium as a pro-hormone made of 126 amino acids and is cleaved by serine protease corine into an N-terminal part and the biologically active ANF, which is often used as a cardiac-specific marker protein. In cell differentiation measurements, i.e. in determining the extent to which certain cells have become “cardiac cell-like” by differentiation, often a reporter gene located downstream of the ANF gene is used, as it expression product is easier to detect than the concentration of ANF in a cellular culture, for example, a luciferase gene. Luciferase in an enzyme which catalyzes the oxidation of a luminescent substrate (luciferine). While that happens, light is emitted, and the intensity of that light is correlated with the expression level of ANF and can therefore serve as a measure of ANF expression.
Initial attempts of ANF expression screenings were performed with P19 cells, i.e. murine embryonal carcinoma cells obtained from the ATCC, or C2C12 cells, i.e. a murine myoblast cell line, as models. In preparation, a plasmid was first constructed by amplifying a gene fragment containing a rat ANF promoter region and subcloning it into the PCL3-BV luciferase reporter plasmid of Promega. The P19 cells were temporarily transfected with said plasmid and cultured in Modified Eagle's Medium alpha (MEM-α) with 7.5% neonatal calf serum and 2.5% fetal bovine serum at 37° C. under 5% CO2 in monolayers for 8 days, during which the medium was exchanged three times. The respective compounds were added at about 60% confluence in DMSO as solvents at a concentration of 1 μM or DMSO alone (as a blank). The luminescence of the samples was measured with a Perkin Elmer Victor V 1420 Multilabel Counter. Their increase or decrease in the presence of the compounds of formula (I) is given in Table 1 below in relation to the blank.
The evaluations have the following meanings: • − decrease of luminescence compared to the blank value; • + measurable increase; • ++ at least 1.5-fold increase; • +++ at least 2-fold increase; • * represents C2C12 cells; and • ** represents P19 cells.

melting point: 249.5 to 251.5 °C
Structure (SMILES): O=C(O)c1cccc(Nc2nc(Oc3ccccc3)nc(Oc3ccccc3Cl)n2)c1 [(31), 3-{[4-(2-chlorophenoxy)-6-phenoxy-1,3,5-triazin-2-yl]amino}benzoic acid]
fold induction at 1 µM [1]: ≥ 1.5

melting point: 152.5 to 154 °C
Structure (SMILES): OCc1ccc(Nc2nc(Oc3ccccc3)nc(Oc3ccccc3)n2)cc1 [(39), {4-[(4,6-diphenoxy-1,3,5-triazin-2-yl)amino]phenyl}methanol]
fold induction at 1 µM [1]: ≥ 2

melting point: 49 to 52 °C
Structure (SMILES): OCc1cccc(Nc2nc(Oc3ccccc3)nc(Oc3ccccc3)n2)c1 [(40), {3-[(4,6-diphenoxy-1,3,5-triazin-2-yl)amino]phenyl}methanol]
Evaluation (luminescence in relation to the blank) [1]: +**

melting point: 110.5 to 114 °C
Structure (SMILES): OCc1cccc(Nc2nc(Oc3ccccc3)nc(Oc3ccc(Cl)cc3)n2)c1 [(41), {3-[(4-(4-chlorophenoxy)-6-phenoxy-1,3,5-triazin-2-yl)amino]phenyl}-methanol]
Evaluation (luminescence in relation to the blank) [1]: −** and (41) (p-chloro): −

melting point: 52 to 54 °C
Structure (SMILES): OCc1cccc(Nc2nc(Oc3ccccc3)nc(Oc3ccccc3Cl)n2)c1 [(43), {3-[(4-(2-chlorophenoxy)-6-phenoxy-1,3,5-triazin-2-yl)amino]phenyl}-methanol]
Evaluation (luminescence in relation to the blank) [1]: −** and (43) (o-chloro): −

melting point: 47 to 50 °C
Structure (SMILES): CC(C)(C)c1ccc(Oc2nc(Nc3cccc(CO)c3)nc(Oc3ccccc3)n2)cc1 [(44), {3-[(4-(4-t-butylphenoxy)-6-phenoxy-1,3,5-triazin-2-yl)amino]phenyl}-methanol]
fold induction at 1 µM [1]: ≥ 2

The remaining lines, values behind:

Structure (SMILES): O=C(O)c1cccc(Nc2nc(Oc3ccccc3)nc(Oc3cccc(Cl)c3)n2)c1 [(30), 3-{[4-(3-chlorophenoxy)-6-phenoxy-1,3,5-triazin-2-yl]amino}benzoic acid]
melting point: 227 to 230 °C
fold induction at 1 µM [1]: ≥ 1.5

Structure (SMILES): CC(C)(C)c1ccc(Oc2nc(Nc3cccc(C(=O)O)c3)nc(Oc3ccccc3)n2)cc1 [(32), 3-{[4-(4-t-butylphenoxy)-6-phenoxy-1,3,5-triazin-2-yl]amino}benzoic acid]
melting point: 245 to 247 °C
Evaluation (luminescence in relation to the blank) [1]: +**

Structure (SMILES): COc1ccc(Oc2nc(Nc3cccc(C(=O)O)c3)nc(Oc3ccccc3)n2)cc1 [(33), 3-{[4-(4-methoxyphenoxy)-6-phenoxy-1,3,5-triazin-2-yl]amino}benzoic acid]
melting point: 233 to 236.5 °C
Evaluation (luminescence in relation to the blank) [1]: +**

Structure (SMILES): N#Cc1ccc(Oc2nc(Nc3cccc(C(=O)O)c3)nc(Oc3ccccc3)n2)cc1 [(34), 3-{[4-(4-cyanophenoxy)-6-phenoxy-1,3,5-triazin-2-yl]amino}benzoic acid]
melting point: 150 °C
Evaluation (luminescence in relation to the blank) [1]: +**

Structure (SMILES): O=C(O)c1cccc(Nc2nc(Oc3ccccc3)nc(Oc3cccc([N+](=O)[O-])c3)n2)c1 [(35), 3-{[4-(3-nitrophenoxy)-6-phenoxy-1,3,5-triazin-2-yl]amino}benzoic acid]
melting point: 225 to 228 °C
fold induction at 1 µM [1]: ≥ 1.5

Structure (SMILES): COc1cc(C=O)ccc1Oc1nc(Nc2cccc(C(=O)O)c2)nc(Oc2ccccc2)n1 [(36), 3-{[4-(4-formyl-2-methoxyphenoxy)-6-phenoxy-1,3,5-triazin-2-yl]-amino}benzoic acid]
melting point: 217.5 to 220 °C
fold induction at 1 µM [1]: ≥ 2
increased ANF expression (peak value) ([1]; P19 cells, 1 μM, relative to blank): more than threefold

Structure (SMILES): COc1ccc(Oc2nc(Nc3cccc(C(=O)O)c3)nc(Oc3ccc(C#N)cc3)n2)cc1 [(38), 3-{[4-(4-cyanophenoxy)-6-(4-methoxyphenoxy)-1,3,5-triazin-2-yl]-amino}benzoic acid]
melting point: 240.5 to 242.5 °C
fold induction at 1 µM [1]: ≥ 1.5

Source: US9611457B2, “Triazine derivatives as differentiation catalysts” (TECHNISCHE UNIVERSITAET WIEN, priority 2011, dated 2017)
